Test results published in patent EP4360627A1, “TREATMENT OF OSTEOARTHRITIS WITH COMT INHIBITORS” (Institut National de la Santé et de la Recherche Médicale …, priority 2022, dated 2024).

How the values were obtained:
[1] = tested on: modèle murin d'arthrose (MIA); assay: Von Frey filament test (mechanical allodynia) in murine osteoarthritis model (MIA); assay type: in vivo, souris C57BL7; details: intra-articular injections at 1, 2, 3 and 4 weeks after induction of osteoarthritis; arthritic paw relative to contralateral paw; figure 4B
Source text: (§1) Cette étude a été autorisée par le ministère de l'Enseignement Supérieur, de la Recherche et de l'Innovation après avis favorable du comité d'éthique locale, CENOMEXA (agrément n°B14118015). L'étude est réalisée au sein d'une animalerie agrée (UMS-CYCERON). Des souris C57BL7 mâles, âgées de 10 semaines ont été utilisés. Les souris étaient placées par cage de 8, en cycle inversé, nourriture et eau disponible ad libidum. L'état de santé de chaque souris était évalué quotidiennement.
(§2) Les injections intra-articulaires (MIA ou tolcapone) ont également été réalisées sous anesthésie générale. Après un repérage clinique du ligament patellaire, les injections sont faites par voie intra articulaire du genou après passage du ligament patellaire à l'aiguille 27 Gauge.
L'allodynie (douleur déclenchée pour un stimulus qui est normalement indolore) mécanique est évaluée par le test des filaments de Von Frey (BIOSEB In Vivo Research Instruments®). Ce test repose sur le principe selon lequel lorsque l'extrémité du filament (de longueur et de diamètre donnés) est appliquée perpendiculairement, la force exercée par le filament augmente jusqu'à ce que le filament fléchisse. Au-delà, la force exercée par le filament reste constante. Pour ce test, les souris sont placées dans une cage individuelle, sur une grille. Une période d'habituation de 30 minutes était requise avant le début du test. […]

[2] = tested on: modèle murin d'arthrose (MIA); assay: Knee histology (safranine-O / Fast Green) in murine osteoarthritis model (MIA); assay type: in vivo, souris C57BL7; details: intra-articular injections at 1, 2, 3 and 4 weeks after induction; histology at 8 weeks; versus MIA+vehicule; figure 5
Source text: as §1, §2
Les articulations sont placées dans une solution de fixation (formaldehyde 37%, PBS) pendant 3 jours, puis décalcifié à l'aide d'Osteosoft pendant 48h. Ensuite, les articulations sont conservées à -80°C dans l'Optimal Cutting Temperature compound (OCT). Des coupes de 10 µm d'épaisseur ont été réalisées à -25°C à l'aide d'un Cryostat (CM 3050 S, Leica BIOSYSTEMS, France), puis montées sur des lames de microscopies SuperFrost®. Les lames sont ensuite colorées au Fast Green puis à la safranine-O. La safranine-O permet de mettre en évidence les composants du cartilage articulaire. […]

[3] = tested on: chondrocytes articulaires humains; assay: RT-PCR mRNA expression in IL-1β-stimulated human articular chondrocytes; assay type: cell-based; details: IL-1β 1ng/mL, 48h, increasing doses of tolcapone, mRNA normalised to RPL13A
Source text: Les cellules ont été obtenus à partir de déchets opératoires selon la réglementation en vigueur (protocole approuvé par le comité de protection des personnes (CPP) Nord-Ouest III). Après la signature du consentement libre et éclairé par les patients, des têtes fémorales, des membranes synoviales et de la moelle osseuse sont récupérées à l'issue d'opération d'arthroplastie de la hanche chez des patients arthrosiques.
Les têtes fémorales sont disséquées et des copeaux de cartilages sont réalisés. Les chondrocytes sont libérés par digestion à la pronase de type XIV (2 mg/ml pendant 15 minutes; Sigma), suivie d'une digestion à la collagénase de type II (2 mg/ml pendant une nuit; Gibco). Les cellules sont ensuite ensemencées à 4×10^4 cellules/cm^2 dans du milieu Eagle modifié de Dulbecco (DMEM) supplémenté avec 10% de sérum de veau foetal (SVF) avec un cocktail d'antibiotiques. Elles sont ensuite incubées à 37°C dans une atmosphère humidifiée contenant 5% de CO2.
Pour les trois types cellulaires, les cellules ont été amplifiées dans une enceinte humide à 37°C sous 5% de CO2. Les milieux de culture sont changés 2 à 3 fois par semaine. Un test mycoplasme a été réalisé afin de vérifier qu'elles ne sont pas contaminées. […]

## Cc1ccc(C(=O)c2cc(O)c(O)c([N+](=O)[O-])c2)cc1 [tolcapone]
[1]
  douleur induite (Von Frey): réduit nettement la douleur induite
[2]
  dommages articulaires (étude histologique): réduit les dommages articulaires
  dégradation du cartilage (étude histologique): très fortement limité la dégradation du cartilage
[3]; figure 3A
  expression de gènes impliqués dans le catabolisme (tel que MMP13): réduit notamment l'expression de gènes impliqués dans le catabolisme (tel que MMP13)
[3]; figure 3B
  expression de gènes impliqués dans l'inflammation (tel que l'IL-6): réduit notamment l'expression
